This assay concerns HepG2. The assay is described as follows: Cytotoxicity against human HepG2 cells at 1.5 to 200 uM after 72 hrs by WST1 assay. It is filed as functional, cell-based. Background: Formazan colour is commonly taken as a measure of viable cells.

Calls of active or inactive are those of the source. The rule behind the calls is not given here.

Take `O=c1[nH]c(=O)n([C@H]2C[C@H](O)[C@@H](CO)O2)cc1F`: the result was Active.

With `CC(=O)N[C@H]1[C@H](OCCCCCCNC(=O)CCOCC(COCCC(=O)NCCCCCCO[C@@H]2O[C@H](CO)[C@H](O)[C@H](O)[C@H]2NC(C)=O)(COCCC(=O)NCCCCCCO[C@@H]2O[C@H](CO)[C@H](O)[C@H](O)[C@H]2NC(C)=O)NC(=O)CCCC(=O)NCCCCCCOP(=O)(O)OC[C@H]2O[C@@H](n3cc(F)c(=O)[nH]c3=O)C[C@@H]2O)O[C@H](CO)[C@H](O)[C@@H]1O`, the result was Active.

For the origin of these results see ChEMBL document CHEMBL4229476, “Studies directed toward the asialoglycoprotein receptor mediated delivery of 5-fluoro-2'-deoxyuridine for hepatocellular carcinoma” (Bioorg Med Chem Lett, 2018).
